Experimental data reported in article PMC10302146, “Dual Anta-Inhibitors Targeting Protein Kinase CK1δ and A2A Adenosine Receptor Useful in Neurodegenerative Disorders” (Molecules, 2023).

Tests used:
[1] = Everted gut sac absorption study (duodenum), HPLC-MS; type: in vitro ADME, rat; conditions: for Papp at 60 min: male, Wistar, rat
Experimental: Despite these remarkable assumptions, as many known kinase inhibitors are very often unable to cross lipid bilayer membranes, including the blood–brain barrier, and are, therefore, only suitable for non-central nervous system disorders, the ability of A2A/CK1δ double anta-inhibitors to cross the intestinal barrier was investigated. The experiment was performed using the everted gut sac model. The everted sac model is an efficient tool for studying in vitro drug absorption mechanisms, intestinal metabolism of drugs, the role of transporters in drug absorption, and investigating the role of intestinal enzymes during drug transport through the intestine. Compounds 1 and 2 were measured by liquid chromatography-mass spectrometry (LC-MS) in the mucosal and serosal media to provide a complete picture of the transport.
Compounds 1 and 2 were incubated in the duodenum for 60 min at concentrations of 10^−4, 10^−5, and 10^−6 M to evaluate their absorption.
The concentrations 10^−4, 10^−5, and 10^−6 M correspond to 24.6, 2.46, and 0.246 μg/mL of compound 1 and to 37.6, 3.76, and 0.376 μg/mL of compound 2 due to different molecular weights. Glucose was used to verify the integrity and viability of the gut sacs. Intestine sacs were exposed to the concentrations of compounds under study with respect to glucose-treated tissues. After incubation time, fluids from the mucosal (outside the sacs) and serosal (inside the sacs) sides of the rat gut sacs were collected and detected by HPLC-MS analysis. As expected, the amount of the absorbed analytes was concentration dependent even if compound 1 was much better absorbed with respect to compound 2 (Table 2 and Table 3). […] Data are reported as means ± SE (n = 4–5 experiments). The amount of compounds absorbed compared to the initial concentration is statistically different (p < 0.05).
Adult male Wistar rats (250–300 g; 11–12 weeks) were sacrificed by cervical dislocation, the small intestine was removed, and the duodenum segment was isolated and washed in TC199 medium. The intestine was divided into segments of 2–2.5 cm in length (4 for each animal), and each of them was everted on a glass rod of […] in diameter. All segments were closed at one end with a silk thread, filled with fresh oxygenated TC199 medium, and closed at the other end, creating a shut section (sac). Each sac was placed in a 50 mL beaker containing 9.0 mL of medium aerated with oxygen (O2/CO2, 95%:5%) and thermostated at 37 °C. A total of 1 mL of medium containing one of the samples at a concentration of 1 uM, 10 uM, or 100 uM was added. Each concentration was tested in duplicate in three different animals. In order to mimic the intestine peristalsis, gut sacs were incubated in an oscillating water bath (60 cycles/min). After 1h incubation, sacs were removed, washed in saline solution (0.9% NaCl), and wiped with filter paper. The content of each sac (serosal fluid) was collected into a 1.5 mL Eppendorf tube, and the sac was weighed before and after serosal fluid removal to calculate the exact volume contained inside. Samples were centrifuged for 15 min. at 13,500× g, and the supernatant aqueous solution was filtered through a microporous membrane (0.45 μm) for high-performance liquid chromatography (HPLC). The amount of compound 1 or 2 present inside (serosal fluid) and outside (mucosal fluid) of each sac was calculated by HPLC with diode-array detection (HPLC-DAD) analysis.
The obtained samples from the everted sac model experiment were centrifuged for 20 min at 13,500× g rpm, and the supernatant aqueous solution was filtered through a microporous membrane (0.45 μm pore size) for high-performance liquid chromatography-mass spectrometry analysis. LC-MS analysis was carried out using an HPLC Agilent Technologies 1260 Infinity II and a single quadrupole mass spectrometer. […]

CK1δ = test system: CK1δ; set-up: method as in PMID 37259317; conditions: cited from earlier work; for IC50: enzymatic inhibition
human recombinant A1AR = target: human recombinant A1AR; set-up: method as in PMID 37259317; conditions: [3H]CCPA, membranes from CHO cells stably transfected; means ± standard errors; read-out: KiA1; cited from earlier work
N13 microglial cells = experiment: N13 cell viability, CK cocktail 48 h pretreatment then ligand (A2AAR antagonist protocol); conditions: for effect after CK cocktail damage in the presence of NECA: compound 1 7.5 µM, compound 2 4.5 µM, NECA 10 µM; for effect after CK cocktail damage in the presence of NECA / counteraction of CK cocktail effect (cell viability): 60 min; for effect after CK cocktail damage in the presence of NECA / rescue of inflammatory damage (cell viability): after CK cocktail 20 ng/mL 48 h; for rescue of inflammatory damage (cell viability) / counteraction of CK cocktail effect (cell viability): lower concentrations (0.625 µM compound 1, 0.375 µM compound 2); for rescue of inflammatory damage (cell viability): 30 min; for counteraction of CK cocktail effect (cell viability): after CK cocktail 48 h
Experimental: Given the nature of compounds, dual A2A/CK1δ anta-inhibitors, their neuroprotective effect against a neuroinflammatory insult was investigated following two different approaches aimed at studying the antagonist activity on the A2AAR and the inhibitor effect on CK1δ. […] The concentrations used were 35, 65, and 400 µM at 60 min of incubation.
N13 cells were plated in 96-well plates at the confluence of 1 × 10^4 cells/well and incubated overnight. Cells were divided into two groups in order to study the activity of compounds on A2AAR and CK1δ (Scheme 1). […] Cells of the second group were pretreated with 2 µL at different concentrations of understudy ligand, or the reference compound PF670462, for 30 or 60 min and then with further addition of a proinflammatory cocktail of cytokines for 48 h (Scheme 1). After treatment, 20 µL of CellTiter 96® AQueous One Solution Reagent was added to each well to a final volume of 100 µL. After 1 h of incubation, absorbance was measured at 492 nm in the microplate reader GENiosPro. Cell viability was estimated as the relation between the OD of treated cells and the OD of untreated cells in percentage. An untreated control and a control with the solvent were run. Experiments were performed in triplicate.

[2] = duodenum, 60 min, initial 10^−4 M (24.6 μg/mL compound 1, 37.6 μg/mL compound 2)
[3] = duodenum, 60 min, initial 10^−5 M (2.46 μg/mL compound 1, 3.76 μg/mL compound 2)
[4] = duodenum, 60 min, initial 10^−6 M (0.246 μg/mL compound 1, 0.376 μg/mL compound 2)

Structure (SMILES)	Percentage of Drug Absorption (A%) ([1]; 10^−4 M, 60 min)	Percentage of Drug Retention (Ad%) ([1]; 10^−4 M, 60 min)	Percentage of Drug Absorption (A%) ([1]; 10^−5 M, 60 min)	Percentage of Drug Retention (Ad%) ([1]; 10^−5 M, 60 min)	Absorbed Concentration [1, 2]	Absorbed Concentration [1, 3]	Absorbed Concentration [1, 4]	% Residual Activity at 10 μM ± sd (CK1δ)	% Residual Activity at 40 μM ± sd (CK1δ)	IC50 (CK1δ)	Ki (human recombinant A1AR)	effect after CK cocktail damage in the presence of NECA (N13 microglial cells)	rescue of inflammatory damage (cell viability) (N13 microglial cells)	counteraction of CK cocktail effect (cell viability) (N13 microglial cells)	also measured
CN(C)c1nc(N)c2ncn(C3CCCC3)c2n1 [compound 1, 9-Cyclopentyl-N2,N2-dimethyl-9H-purine-2,6-diamine]	47%	2%	42%	10%	11.5 µg/mL	1.03 µg/mL	0.059 µg/mL	27 ± 4.0%	19 ± 9.4%	1750 ± 200 nM	3340 ± 658 nM	significantly lower than that obtained in the absence of NECA	unable to rescue the inflammatory damage	able to counteract the effect of the CK cocktail	Percentage of Drug Absorption (A%) ([1]; 10^−6 M, 60 min): 24%; Percentage of Drug Retention (Ad%) ([1]; 10^−6 M, 60 min): 35%; Papp at 60 min ([1]; 10^−4 M): 33 ×10⁻⁶ cm/s; Papp at 60 min ([1]; 10^−5 M): 29.6 ×10⁻⁶ cm/s; Papp at 60 min ([1]; 10^−6 M): 16.9 ×10⁻⁶ cm/s; viability at 7.5 µM (N13 microglial cells; N13, 48 h, read-out: cell viability): 89%
CN(C)c1nc(NCc2nc3ccccc3[nH]2)c2ncn(C3CCCC3)c2n1 [compound 2, N^6-methyl-(2-benzimidazolyl)-2-dimethyamino-9-cyclopentyladenine]	23%	55%	15%	66%	8.66 µg/mL	0.576 µg/mL	not detectable	34 ± 5.0%	22 ± 1.0%	590 ± 200 nM	2900 ± 648 nM	significantly lower than that obtained in the absence of NECA	unable to rescue the inflammatory damage	able to counteract the effect of the CK cocktail	Papp (×10^−6 cm/s) ([1]; 10^−4 M, 60 min): 16.1 ×10^−6 cm/s; Papp (×10^−6 cm/s) ([1]; 10^−5 M, 60 min): 10.8 ×10^−6 cm/s; metabolic conversion in everted gut sac (HPLC analysis) ([1]; duodenum, 60 min): partially converted into its metabolite, compound 1; cell viability (N13 microglial cells): 125% ± 3.1
